# Assay results taken from patent publication US20210154271A1, “CORNEAL EPITHELIAL CELL CHEMOTAXIS PROMOTER” (SHIODA LIFE SCIENCE INC., priority 2018, published 2021).
# Ends that are not written are not given here.
# Assays:
# HCEC-II cells [1] = assay: Analysis of cell growth ability (MTT-assay); type: cell-based, human
# Description: (§1) Normal human corneal epithelial cells HCEC-II (manufactured by Kurabo Industries Ltd.) were cultured in an OcuLifeBM medium containing OcuLifeLifeFactor (both manufactured by Kurashiki Spinning Co., Ltd.) at 37° C., in the presence of 5% CO2.
# HCEC-II cells were seeded in 96-well plates and cultured for 24 h. Subsequently, PACAP alone, or PACAP and AraC (cytarabine) were added. AraC (cytarabine) is a cytostatic agent. After the addition of these agents, the cell growth ability was analyzed by measuring the number of live cells from the value of absorbance at 570 nm using MTT cell growth kit I (manufactured by Roche Life Science Co., Ltd.). The reference wavelength was set at 650 nm.
# The effects of PACAP are either due to 1) promoting cell growth, 2) promoting cell chemotaxis, or 3) promoting both cell growth and chemotaxis. To elucidate which of these could be caused, cell growth on days 1 and 4 after adding various concentrations of PACAP (10^−9 M to 10^−13 M) were analyzed by MTT-assay.
# [2] = test system: model mice with injured corneas; assay: Instillation of PACAP receptor antagonists on model mice with injured corneas; type: in vivo, mouse
# Excerpt: Next, to investigate which types of receptors are involved in healing-promoting effects of injured corneas by PACAP, the inventors performed an instillation experiment of PACAP receptor antagonists (PACAP6-38, VIP6-28). PACAP6-38 is an antagonist of PAC1R and VPAC2R. VIP6-28 is an antagonist of VPAC1R and VPAC2R.
# In addition to the same operations as the instillation experiment in Example 5, PACAP6-38 (antagonist) (10^−9 M) or VIP6-28 (antagonist) (10^−9 M) was instilled immediately before instillation of PACAP and saline. Instillation of PACAP and saline ware performed every 2 hours.
# Following four groups were created; the saline-only-instilled group, the PACAP-only-instilled group, the group instilled saline and an antagonist simultaneously, the group instilled PACAP and an antagonist simultaneously.
# FIG. 10A is the result of PACAP6-38, and FIG. 10B is the result of VIP6-28. In FIG. 10, “saline” indicates the saline-only-instilled group. “PACAP” indicates the PACAP-only-instilled group. “PACAP6-38” or “VIP6-28” indicates the group instilled saline and an antagonist simultaneously. “PACAP6-38+PACAP” or “VIP6-28+PACAP” indicates the group instilled PACAP and an antagonist simultaneously.
# As well as FIG. 9C, the area of the injured site of the cornea immediately after injury to the cornea (0 hour) is set as 100%.
# [3] = test system: mice with lacrimal glands removed; assay: Tear secretion by the cotton thread method; type: in vivo, mouse; details: mice with lacrimal glands removed (not shown in figures)
# Excerpt: (§2) First, mice with lacrimal glands removed were generated. Under inhalation anesthesia with sevoflurane, the extraorbital lacrimal glands and lacrimal ducts of mice were removed. Both lacrimal glands were removed after the lacrimal ducts were removed to expose the intraorbital lacrimal glands. Then the skin was sutured and the mice were kept warm until awaking from anesthesia. The amount of tear secretion in mice before and after removal of lacrimal glands was confirmed by the cotton thread method.
# [4] = test system: Normal human corneal epithelial cells HCEC-II; assay: Scratch assay on HCEC-II cells; type: cell-based
# Description: as §1
# Wound-healing-promoting effects of PACAP were evaluated by scratch assay. HCEC-II cells were seeded in 24-well plates, cultured, and then wounded by a CELL Scratcher scratch stick (manufactured by Asahi Glass Co., Ltd.) (between a dotted line and a dotted line in FIG. 1).
# Immediately after wounding, PACAP38 alone or PACAP38 and AraC were added, and cells infiltrating the wounded area were observed.
# (§3) Outcomes of scratch assay and BrdU labeling were evaluated as following. Images were acquired by BZ-X700 (Keyence Inc.), and then quantitatively analyzed using the analysis applications (hybrid cell counts, macro cell counts) (Keyence Inc.).
# [5] = test system: eye of a rabbit with detached corneas; details: PACAP administered to eye, in comparison with controls; cited from earlier work
# [6] = test system: model mice with injured corneas; assay: PACAP instillation on model mice with injured corneas; type: in vivo, mouse (C57BL/6J)
# Description: To study the healing effects of PACAP instillation on an injured site of a corneal, the inventors created model mice with injured corneas. Injured sites were created by marking a cornea of a mouse (C57BL/6J, male, 8-12 weeks old) with a 1-mm-diameter biopsy punch and detaching corneal epithelia within the marks with tweezers. At the injured sites, 2 μL of 10^−9 M PACAP, 10^−11 M PACAP, 10^−13 M PACAP, or saline was instilled every 2 hours for a total of seven times up to 12 hours later. In addition, the injured sites were visualized by instilling 2 μL of 0.1% fluorescein (a fluorescent colorant) in a total of 3 times after 0, 12, and 24 hours, and photographing was performed.
# In addition, eyeballs at after 0 and 12 hours were removed, and tissue sections were made after paraffin embedding, followed by hematoxylin and eosin staining (HE staining). From the captured fluorescent images, by using image analysis software (ImageJ), the area and the outer periphery of injured sites of corneas were measured when saline was instilled and when PACAP of the respective concentrations were instilled.
# (§4) The area of the injured site of the cornea immediately after injury to the cornea (0 hour) is set as 100%.
# HCEC-II cells [7] = assay: BrdU labeling of dividing cells; type: cell-based, human; details: 18 hours after adding PACAP (FIGS. 4A, 4B and 5)
# Description: Post-wounding dividing cells were observed by labeling with BrdU Labeling and Detection Kit I (Roche).
# as §3
# [8] = test system: SV40-human corneal epithelial cell line (HCEC); assay: In vitro scratch assay on monolayer sheets of human corneal cultured cells; type: cell-based; details: 10^−11 M PACAP, 6 hours after scratching, vs PBS-treated control group (FIG. 12B)
# Description: To evaluate the corneal healing effects of PACAP in vitro, a scratch assay was performed using a human corneal epithelial cell line. A SV40-human corneal epithelial cell line (HCEC) was purchased from the Human Science Research Resource Bank (Health Science Research Resources Bank). Cells were cultured in a medium containing DMEM, 1×antibiotic-antifungal agent (manufactured by Thermo Fisher Scientific Co., Ltd.), and 10% fetal bovine serum (FBS). Cultures were performed at 37° C. in the presence of 5% CO2.
# In invasion assays, a floating HCEC with 10^6 cells was seeded in 12-well plates. After 2 days of incubation, the confluent cell layer was cross-shaped wounded with plastic sticks. PBS or various types of PACAP (final concentrations: 10^−15 M, 10^−13 M, 10^−11 M, 10^−9 M, and 10^−7 M) were added to […]. Scratch sites (wounded sites) were photographed by Nicon Biostation CT (Nikon Co., Ltd.) at regular intervals. Areas of the scratch sites were measured by CL-Quant software (made by Nikon Inc.).
# The area of the scratch site immediately after the scratch (0 hour) is set as 100%.
# [9] = test system: mice with lacrimal glands removed, injured corneas; assay: Corneal healing in mice with lacrimal glands removed; type: in vivo, mouse; details: LG−PACAP vs LG−saline, 10^−11 M PACAP, 12 hours after injuring, p<0.05 (FIG. 11)
# Excerpt: as §2
# FIG. 11 is a graph showing the measurement result of the area of injured sites of corneas (fluorescent area) of upon administration of saline or PACAP at 0, 12, and 24 hours after injuring of corneas of mice. The method and the frequency of administration of saline or PACAP were the same as in Example 5.
# as §4
# In FIG. 11, “LG+saline” indicates the result of saline administration to mice without lacrimal glands removed. “LG+PACAP” indicates the result of PACAP administration to mice without lacrimal glands removed. “LG−saline” indicates the result of saline administration to mice with lacrimal glands removed. “LG−PACAP” indicates the result of PACAP administration to mice with lacrimal glands removed. The concentration of PACAP is 10^−11 M.
# [10] = 10^−9 M PACAP and 15 μM AraC (FIG. 1A to C)
compound,measurement,setting,value
"Nc1ccn([C@@H]2O[C@H](CO)[C@@H](O)[C@@H]2O)c(=O)n1 [AraC, cytarabine, reference compound]",effect of AraC on the cell-growth-promoting effects of PACAP,HCEC-II cells [1]; 15 μM AraC,almost completely suppressed
"PACAP6-38: PACAP receptor antagonist; antagonist of PAC1R and VPAC2R (FTDSYSRYRKQMAVKKYLAAVLGKRYKQRVKNK; ends and bridges not checked; UniProt P18509 137-169, looked up, fragment)",effect of antagonist on PACAP-induced healing of injured corneas,"[2]; antagonist 10^−9 M instilled with PACAP, 12 hours after injuring, vs PACAP-only group, p<0.05 (FIG. 10A)",significantly suppressed
"PACAP: Pituitary Adenylate Cyclase-Activating Polypeptide; PACAP38, 38 amino acid residues (Peptide Research Institute, Osaka) (HSDGIFTDSYSRYRKQMAVKKYLAAVLGKRYKQRVKNK; ends and bridges not checked; UniProt P18509 132-169, looked up)",tear secretion after instillation,[3],did not promote tear secretion
same,cell-infiltration compared with 10^−9 M PACAP alone,[4]; [10],less
same,cell-infiltration compared with controls,[4]; [10],increased more than in controls
same,area of the wounded site at 18 h,"[4]; 10^−9 M PACAP in the presence of 15 μM AraC, compared to the control (FIG. 6)",increased
same,cellular infiltrates at the wounded site,"[4]; 10^−9 M PACAP, 4 days post-wounding, compared to controls (FIG. 1A, B)",more cellular infiltrates were observed at the wounded site
same,area of the wounded site,"[4]; 10^−9 M PACAP, compared to controls (FIG. 2, 18 h)",reduced
same,area of the wounded site at 18 h,[4]; 10^−11 M PACAP in the presence of 15 μM AraC (FIG. 6),reduced
same,restoration of corneal epithelium,[5],accelerated
same,area of the injured site of the cornea (fluorescent area),"[6]; 10^−9 M PACAP instilled, 12 hours after injuring, vs saline group (FIG. 9C)",significantly smaller
same,periphery of the injured site of the cornea,"[6]; 10^−9 M PACAP instilled, 12 hours after injuring, vs saline group (not shown in figures)",significantly smaller
same,area of the injured site of the cornea (fluorescent area),"[6]; 10^−11 M PACAP instilled, 12 hours after injuring, vs saline group (FIG. 9C)",significantly smaller
same,periphery of the injured site of the cornea,"[6]; 10^−11 M PACAP instilled, 12 hours after injuring, vs saline group (not shown in figures)",significantly smaller
same,size of injured sites of corneas (fluorescence image),"[6]; 12 and 24 hours after injuring, PACAP-instilled vs saline-instilled group (FIG. 9A)",became smaller than those of the saline-instilled group
same,corneal epithelium in HE staining,[6]; 12 hours after instillation (FIG. 9B),the corneal epithelium was restored
same,area of the injured site of the cornea (fluorescent area),"[6]; all concentrations (10^−9, 10^−11, 10^−13 M), 24 hours after injuring, p<0.01 vs saline group (FIG. 9C)",significantly smaller
same,periphery of the injured site of the cornea,"[6]; all concentrations, 24 hours after injuring (not shown in figures)",significantly smaller
same,most effective concentration of PACAP,"[6]; instillation, injured cornea area",10^−11 M
same,cell growth by MTT-assay,"HCEC-II cells [1]; 1 day after addition, 10^−9 M to 10^−13 M PACAP, relative to cells with no PACAP (FIG. 3)",cells grew at any concentration
same,cell growth by MTT-assay,"HCEC-II cells [1]; 4 days after addition, 10^−9 M to 10^−13 M PACAP (FIG. 3)",the effect was remarkable
same,number of BrdU positive (dividing) cells,HCEC-II cells [7],an increase of number of BrdU positive cells
same,area of the scratch site,[8],significantly reduced
same,area of injured sites of corneas (fluorescent area),[9],became significantly smaller
"VIP6-28: PACAP receptor antagonist; antagonist of VPAC1R and VPAC2R (FTDNYTRLRKQMAVKKYLNSILN; ends and bridges not checked; UniProt P01282 130-152, looked up, fragment)",effect of antagonist on PACAP-induced healing of injured corneas,[2]; antagonist 10^−9 M instilled with PACAP (FIG. 10B),not suppressed
